Assay results taken from ChEMBL document CHEMBL2086221, “Armeniaspiroles, a new class of antibacterials: Antibacterial activities and total synthesis of 5-chloro-Armeniaspirole A” (Bioorg Med Chem Lett, 2012).
Active and inactive are the calls of the source. No cut-off for these calls is given here.

Experiments:
Staphylococcus aureus [1] = assay: Antibacterial activity against methicillin-resistant Staphylococcus aureus ATCC 33592 at >1 ug/mL after 48 hrs; type: functional, organism-based
Staphylococcus aureus [2] = assay: Antibacterial activity against methicillin-resistant Staphylococcus aureus ATCC 33592; type: functional
Escherichia coli [3] = assay: Antibacterial activity against Escherichia coli ATCC 35218 expressing LacR; type: functional
Streptococcus pneumoniae [4] = assay: Antibacterial activity against penicillin-resistant Streptococcus pneumoniae DSM 11865 at >1 ug/mL after 48 hrs; type: functional, organism-based
Streptococcus pneumoniae [5] = assay: Bacteriostatic activity against penicillin-resistant Streptococcus pneumoniae DSM 11865 by time kill study in presence of fetal calf serum; type: functional, organism-based
Pseudomonas aeruginosa [6] = assay: Antibacterial activity against Pseudomonas aeruginosa ATCC 27853 at >1 ug/mL after 48 hrs; type: functional, organism-based
Pseudomonas aeruginosa [7] = assay: Bacteriostatic activity against Pseudomonas aeruginosa ATCC 27853 by time kill study in presence of fetal calf serum; type: functional, organism-based
Enterococcus faecium [8] = assay: Bacteriostatic activity against vancomycin-resistant Enterococcus faecium DSM 17050 by time kill study in presence of fetal calf serum; type: functional, organism-based
Streptococcus pneumoniae [9] = assay: Antibacterial activity against penicillin-resistant Streptococcus pneumoniae DSM 11865; type: functional
Enterococcus faecium [10] = assay: Antibacterial activity against vancomycin-resistant Enterococcus faecium DSM 17050; type: functional
Staphylococcus aureus [11] = assay: Bacteriostatic activity against methicillin-resistant Staphylococcus aureus ATCC 33592 by time kill study in presence of fetal calf serum; type: functional, organism-based
Escherichia coli [12] = assay: Bacteriostatic activity against Escherichia coli ATCC 35218 expressing LacR by time kill study in presence of fetal calf serum; type: functional, organism-based
Enterococcus faecium [13] = assay: Antibacterial activity against vancomycin-resistant Enterococcus faecium DSM 17050 at >1 ug/mL after 48 hrs; type: functional, organism-based
Pseudomonas aeruginosa [14] = assay: Antibacterial activity against Pseudomonas aeruginosa ATCC 27853; type: functional
Escherichia coli [15] = assay: Antibacterial activity against Escherichia coli ATCC 35218 expressing LacR at >1 ug/mL after 48 hrs; type: functional, organism-based
Escherichia coli [16] = assay: Bacteriostatic activity against Escherichia coli ATCC 35218 expressing LacR by time kill study; type: functional, organism-based
Pseudomonas aeruginosa [17] = assay: Bacteriostatic activity against Pseudomonas aeruginosa ATCC 27853 by time kill study; type: functional, organism-based
[18] = Staphylococcus aureus, ATCC 33592
[19] = Streptococcus pneumoniae, DSM 11865
[20] = Enterococcus faecium, DSM 17050

| Compound | Activity (Staphylococcus aureus [1]) | IC80 (Staphylococcus aureus [2]; [18]) [µM] | IC80 (Escherichia coli [3]) [µM] | Activity (Streptococcus pneumoniae [4]) | Activity (Streptococcus pneumoniae [5]) | Activity (Pseudomonas aeruginosa [6]) | Activity (Pseudomonas aeruginosa [7]) | Activity (Enterococcus faecium [8]) | IC80 (Streptococcus pneumoniae [9]; [19]) [µM] | IC80 (Enterococcus faecium [10]; [20]) [µM] | Activity (Staphylococcus aureus [11]) | Activity (Escherichia coli [12]) | Activity (Enterococcus faecium [13]) | IC80 (Pseudomonas aeruginosa [14]) [µM] | Activity (Escherichia coli [15]) | IC80 (Streptococcus pneumoniae [9]) [µM] | Activity (Escherichia coli [16]) | Activity (Pseudomonas aeruginosa [17]) | IC80 (Staphylococcus aureus [2]) [µM] | IC80 (Enterococcus faecium [10]) [µM] |
| --- | --- | --- | --- | --- | --- | --- | --- | --- | --- | --- | --- | --- | --- | --- | --- | --- | --- | --- | --- | --- |
| CCCCCCc1c(O)c(Cl)cc2c1O[C@@]1(C2=O)C(Cl)=C(Cl)C(=O)N1C | Active | 1.4 | > 30 | Active | inactive | Active | inactive | inactive | 0.5 | 6.7 | inactive | inactive | Active | > 30 | Active |  |  |  |  |  |
| CCCCCCc1c(O)c(Cl)cc2c1OC1(C2=O)C(Cl)=C(Cl)C(=O)N1C (racemic) | Active | 3.1 | > 30 | Active | inactive | Active | inactive | inactive | 1.3 | 5.2 | inactive | inactive | Active | > 30 | Active |  |  |  |  |  |
| CCCCCCc1c(O)c(Cl)cc2c1O[C@]1(C2=O)C(Cl)=C(Cl)C(=O)N1C (stereo in doubt; form 1) [listing 1 of 2 here] |  | 5.1 | > 30 |  |  |  |  |  |  | 8.5 |  |  |  | > 30 |  | 1.7 |  |  |  |  |
| CCCCCCc1c(O)c(Cl)cc2c1O[C@]1(C2=O)C(Cl)=C(Cl)C(=O)N1C (stereo in doubt; form 1) [listing 2 of 2 here] | Active |  |  | Active | inactive | Active | inactive | inactive |  |  | inactive | inactive | Active |  | Active |  | Dose-dependent effect | Dose-dependent effect |  |  |
| CCCCCCc1c(O)c(Cl)cc2c1O[C@]1(C2=O)C(Cl)=C(Cl)C(=O)N1C (stereo in doubt; form 2) |  |  |  |  |  |  |  |  |  |  |  |  |  |  |  | 0.4 |  |  | 3.7 | 8.2 |
